Source: ChEMBL document CHEMBL1155115 (J Med Chem, 2008)

Experiments:
[1] = system: Dictyostelium discoideum; experiment: Antimicrobial activity against Dictyostelium discoideum; format: functional, organism-based
[2] = target: T1, Farnesyl pyrophosphate synthase (Homo sapiens) (UniProt P14324); experiment: Inhibition of farnesyl diphosphate synthase at 35 nM
T1 sequence (whole entry): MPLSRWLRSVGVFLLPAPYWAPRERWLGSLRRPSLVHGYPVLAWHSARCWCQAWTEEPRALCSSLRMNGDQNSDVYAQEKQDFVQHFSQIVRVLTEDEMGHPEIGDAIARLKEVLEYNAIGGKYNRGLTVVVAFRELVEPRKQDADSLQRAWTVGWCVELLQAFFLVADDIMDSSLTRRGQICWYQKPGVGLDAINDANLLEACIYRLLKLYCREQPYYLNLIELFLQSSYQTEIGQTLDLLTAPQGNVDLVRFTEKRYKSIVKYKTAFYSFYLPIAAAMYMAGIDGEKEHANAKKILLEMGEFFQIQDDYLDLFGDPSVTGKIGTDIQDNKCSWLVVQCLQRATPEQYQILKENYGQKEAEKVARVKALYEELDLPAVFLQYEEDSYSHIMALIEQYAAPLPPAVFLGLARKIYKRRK

[3] = target: T1, Farnesyl pyrophosphate synthase (Homo sapiens); experiment: Inhibition of farnesyl diphosphate synthase at 30 nM

## Nc1ccccc1CC(O)(P(=O)(O)O)P(=O)(O)O
[1]
  IC50: 18 µM

## CC[n+]1cccc(CC(P(=O)([O-])O)P(=O)(O)O)c1 (stereo unspecified)
[1]
  IC50: 27 µM
[2]
  inhibition: 59%

## O=P(O)(O)C(O)(Cc1ccccc1)P(=O)(O)O
[1]
  IC50: < 240 µM

## O=P(O)(O)C(O)(CC1CCCNC1)P(=O)(O)O (stereo unspecified)
[3]
  inhibition: 58%
[1]
  IC50: 30 µM
